Measurements taken from patent US12679878B2, “CRF2 receptor agonists and their use in therapy” (SANOFI, priority 2020, dated 2026).
Starred links: 1 amine or outer side, 2 acyl side, 3 side chain; linkers in the order of their positions; H or OH if unused. Non-standard residues stand in square brackets, D forms with d. Residues, ends and D or L forms follow the SMILES beside them. Groups on a side chain read outwards from the residue. *: point of attachment. C18 diacid = O=C(O)CCCCCCCCCCCCCCCCC(=O)*; γGlu = O=C(O)[C@H](CCC(=O)[*:2])N[*:1]; AEEA = NCCOCCOCC(=O)O; Aib = CC(C)(N)C(=O)O

Target: T1, human CRF2α receptor (Homo sapiens, UniProt Q13324)
T1 construct: expressed in transfected cells; host or cells: TeloHEAC
T1 sequence (Q13324 1-411): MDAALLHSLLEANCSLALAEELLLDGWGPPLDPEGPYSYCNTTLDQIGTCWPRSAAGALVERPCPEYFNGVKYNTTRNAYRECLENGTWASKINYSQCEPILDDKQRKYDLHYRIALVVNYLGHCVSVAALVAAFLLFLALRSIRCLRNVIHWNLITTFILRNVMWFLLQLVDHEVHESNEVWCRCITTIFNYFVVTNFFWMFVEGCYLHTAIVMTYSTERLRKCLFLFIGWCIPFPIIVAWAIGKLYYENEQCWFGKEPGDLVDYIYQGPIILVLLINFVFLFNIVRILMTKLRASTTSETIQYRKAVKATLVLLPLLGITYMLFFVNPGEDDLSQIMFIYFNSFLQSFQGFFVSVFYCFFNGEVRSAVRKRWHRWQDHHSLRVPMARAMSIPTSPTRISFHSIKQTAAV
Experiment: cAMP agonism at human CRF2 α receptor in TeloHEAC cells (Example 7)
Format: cell-based
Details: cAMP HTRF, TeloHEAC cells stably expressing human CRF2 α, 0% HSA; read-out: EC50 [nM], 0% HSA
Method: Agonism of compounds for human corticotropin-releasing factor 2α (CRF2 α receptor) was determined by functional assays measuring CAMP response of a TeloHEAC cell line stably expressing human CRF2 α receptor.
Cells were grown in a T175 culture flask placed at 37° C. to near confluence in medium (DMEM/10% FBS) and collected in 2 ml vials in cell culture medium containing 10% DMSO in a concentration of 10-50 million cells/ml. Each vial contained 1.8 ml cells. The vials were slowly frozen to −80° C. in isopropanol and then transferred in liquid nitrogen for storage. Prior to use, frozen cells were thawed quickly at 37° C. and washed (5 min at 900 rpm) with 20 ml cell buffer (1×HBSS; 20 mM HEPES; 0% or 0.1% HSA). Cells were resuspended in assay buffer (cell buffer plus 2 mM IBMX) and adjusted to a cell density of 1 million cells/ml. For measurement, 5 μl cells (final […]) and 5 μL of test compound were added to a 384-well plate, followed by incubation for 30 minutes at room temperature.
The CAMP content of cells was determined using a kit from Cisbio Corp. (cat. no. 62AM4PEC) based on HTRF (Homogenous Time Resolved Fluorescence). After addition of HTRF reagents diluted in lysis buffer (kit components), the plates were incubated for 1 h, followed by measurement of the fluorescence ratio at 665/620 nm. The percent activity value (E %) was calculated by setting 1000 nM of urocortin 2 (UCN2) as 100%. The in vitro potency of the compounds was quantified by determining the concentrations that caused 50% activation of maximal response (EC50).

## CC[C@H](C)[C@H](N)C(=O)N[C@H](C(=O)N[C@@H](CC(C)C)C(=O)N[C@@H](CO)C(=O)N[C@@H](CC(C)C)C(=O)N[C@@H](CC(=O)O)C(=O)N[C@H](C(=O)N1CCC[C@H]1C(=O)N[C@H](C(=O)N[C@@H](CCCCN)C(=O)N[C@@H](CC(C)C)C(=O)N[C@@H](CCCCNC(=O)COCCOCCNC(=O)COCCOCCNC(=O)CC[C@H](NC(=O)CCCCCCCCCCCCCCCCC(=O)O)C(=O)O)C(=O)N[C@@H](CCC(N)=O)C(=O)N[C@H](C(=O)N[C@@H](CC(C)C)C(=O)N[C@@H](CC(C)C)C(=O)N[C@@H](CCC(=O)O)C(=O)N[C@@H](CCC(N)=O)C(=O)N[C@@H](CCC(=O)O)C(=O)N[C@@H](CCCNC(=N)N)C(=O)N[C@@H](CCC(N)=O)C(=O)N[C@@H](CCCNC(=N)N)C(=O)NC(C)(C)C(=O)N[C@@H](CCC(=O)O)C(=O)N[C@@H](CCCNC(=N)N)C(=O)N[C@@H](CCC(N)=O)C(=O)N[C@@H](CCC(N)=O)C(=O)N[C@@H](C)C(=O)N[C@@H](CCC(=O)O)C(=O)N[C@H](C(=O)N[C@@H](CC(N)=O)C(=O)N[C@H](C(=O)N[C@@H](CCC(N)=O)C(=O)N[C@H](C(=O)N[C@@H](CC(C)C)C(=O)N[C@@H](C)C(=O)N[C@@H](CCC(N)=O)C(=O)N[C@H](C(N)=O)C(C)C)[C@@H](C)CC)C(C)C)[C@@H](C)O)[C@@H](C)CC)[C@@H](C)CC)C(C)C)C(C)C [compound 48] (H-IVLSLDVPIKLK([AEEA-AEEA-γGlu-C18 diacid])QILLEQERQR[Aib]ERQQAETNVQILAQV-NH2; N-terminus assumed)
  EC50: 2.2 nM

## CC[C@H](C)[C@H](N)C(=O)N[C@H](C(=O)N[C@@H](CC(C)C)C(=O)N[C@@H](CO)C(=O)N[C@@H](CC(C)C)C(=O)N[C@@H](CC(=O)O)C(=O)N[C@H](C(=O)N1CCC[C@H]1C(=O)N[C@H](C(=O)N[C@@H](CCCCN)C(=O)N[C@@H](CC(C)C)C(=O)N[C@@H](CCCCNC(=O)COCCOCCNC(=O)COCCOCCNC(=O)CC[C@H](NC(=O)CCCCCCCCCCCCCCCCC(=O)O)C(=O)O)C(=O)N[C@@H](CCC(N)=O)C(=O)N[C@H](C(=O)N[C@@H](CC(C)C)C(=O)N[C@@H](CC(C)C)C(=O)N[C@@H](CCC(=O)O)C(=O)N[C@@H](CCC(N)=O)C(=O)N[C@@H](CCC(=O)O)C(=O)N[C@@H](CCCNC(=N)N)C(=O)N[C@@H](CCC(N)=O)C(=O)N[C@@H](CCCNC(=N)N)C(=O)NC(C)(C)C(=O)N[C@@H](CCC(=O)O)C(=O)N[C@@H](CCCNC(=N)N)C(=O)N[C@@H](CCC(N)=O)C(=O)N[C@@H](CCC(N)=O)C(=O)N[C@@H](C)C(=O)N[C@@H](CCC(=O)O)C(=O)N[C@H](C(=O)N[C@@H](CC(N)=O)C(=O)N[C@H](C(=O)N[C@@H](CCCNC(=N)N)C(=O)N[C@H](C(=O)N[C@@H](CC(C)C)C(=O)N[C@@H](CCC(=O)O)C(=O)N[C@@H](CCCNC(=N)N)C(=O)N[C@H](C(N)=O)C(C)C)[C@@H](C)CC)C(C)C)[C@@H](C)O)[C@@H](C)CC)[C@@H](C)CC)C(C)C)C(C)C [compound 49] (H-IVLSLDVPIKLK([AEEA-AEEA-γGlu-C18 diacid])QILLEQERQR[Aib]ERQQAETNVRILERV-NH2; N-terminus assumed)
  EC50: 12.7 nM

## CC[C@H](C)[C@H](N)C(=O)N[C@H](C(=O)N[C@@H](CC(C)C)C(=O)N[C@@H](CO)C(=O)N[C@@H](CC(C)C)C(=O)N[C@@H](CC(=O)O)C(=O)N[C@H](C(=O)N1CCC[C@H]1C(=O)N[C@H](C(=O)N[C@@H](CCCCN)C(=O)N[C@@H](CC(C)C)C(=O)N[C@@H](CCCCNC(=O)COCCOCCNC(=O)COCCOCCNC(=O)CC[C@H](NC(=O)CCCCCCCCCCCCCCCCC(=O)O)C(=O)O)C(=O)N[C@@H](CCC(N)=O)C(=O)N[C@H](C(=O)N[C@@H](CC(C)C)C(=O)N[C@@H](CC(C)C)C(=O)N[C@@H](CCCCN)C(=O)N[C@@H](CCC(N)=O)C(=O)N[C@@H](CCC(=O)O)C(=O)N[C@@H](CCCNC(=N)N)C(=O)N[C@@H](CCC(N)=O)C(=O)N[C@@H](CCCNC(=N)N)C(=O)NC(C)(C)C(=O)N[C@@H](CCC(=O)O)C(=O)N[C@@H](CCCNC(=N)N)C(=O)N[C@@H](CCC(N)=O)C(=O)N[C@@H](CCC(N)=O)C(=O)N[C@@H](C)C(=O)N[C@@H](CCC(=O)O)C(=O)N[C@H](C(=O)N[C@@H](CC(N)=O)C(=O)N[C@H](C(=O)N[C@@H](CCCNC(=N)N)C(=O)N[C@H](C(=O)N[C@@H](CC(C)C)C(=O)N[C@@H](CCC(=O)O)C(=O)N[C@@H](CCCNC(=N)N)C(=O)N[C@H](C(N)=O)C(C)C)[C@@H](C)CC)C(C)C)[C@@H](C)O)[C@@H](C)CC)[C@@H](C)O)C(C)C)C(C)C [compound 50] (H-IVLSLDVPTKLK([AEEA-AEEA-γGlu-C18 diacid])QILLKQERQR[Aib]ERQQAETNVRILERV-NH2; N-terminus assumed)
  EC50: 17.2 nM

## CC[C@H](C)[C@H](NC(=O)[C@H](CCC(N)=O)NC(=O)[C@H](CCCCNC(=O)COCCOCCNC(=O)COCCOCCNC(=O)CC[C@H](NC(=O)CCCCCCCCCCCCCCCCC(=O)O)C(=O)O)NC(=O)[C@@H](NC(=O)[C@H](CCCCN)NC(=O)[C@@H](NC(=O)[C@@H]1CCCN1C(=O)[C@@H](NC(=O)[C@H](CC(=O)O)NC(=O)[C@H](CC(C)C)NC(=O)[C@H](CO)NC(=O)[C@H](CC(C)C)NC(=O)[C@@H](NC(=O)[C@@H](N)Cc1ccccc1)[C@@H](C)O)C(C)C)[C@@H](C)O)[C@@H](C)CC)C(=O)N[C@@H](CC(C)C)C(=O)N[C@@H](CC(C)C)C(=O)N[C@@H](CCCCN)C(=O)N[C@@H](CCC(N)=O)C(=O)N[C@@H](CCC(N)=O)C(=O)N[C@@H](CCCCN)C(=O)N[C@@H](CCC(N)=O)C(=O)N[C@@H](CCCCN)C(=O)N[C@@H](CCCCN)C(=O)N[C@@H](CCC(=O)O)C(=O)N[C@@H](CCCNC(=N)N)C(=O)N[C@@H](CCC(N)=O)C(=O)N[C@@H](CCCCN)C(=O)N[C@@H](C)C(=O)N[C@@H](CCC(=O)O)C(=O)N[C@H](C(=O)N[C@@H](CC(N)=O)C(=O)N[C@H](C(=O)N[C@@H](CCC(N)=O)C(=O)N[C@@H](CC(C)C)C(=O)N[C@@H](CC(C)C)C(=O)N[C@@H](CCC(=O)O)C(=O)N[C@@H](CCCNC(=N)N)C(=O)N[C@H](C(N)=O)C(C)C)C(C)C)[C@@H](C)O [compound 55] (H-FTLSLDVPTKIK([AEEA-AEEA-γGlu-C18 diacid])QILLKQQKQKKERQKAETNVQLLERV-NH2; N-terminus assumed)
  EC50: 48.5 nM

## CC[C@H](C)[C@H](NC(=O)[C@H](CCC(N)=O)NC(=O)[C@H](CCCCNC(=O)COCCOCCNC(=O)COCCOCCNC(=O)CC[C@H](NC(=O)CCCCCCCCCCCCCCCCC(=O)O)C(=O)O)NC(=O)[C@H](CC(C)C)NC(=O)CNC(=O)[C@@H](NC(=O)[C@@H]1CCCN1C(=O)[C@@H](NC(=O)[C@H](CC(=O)O)NC(=O)[C@H](CC(C)C)NC(=O)[C@H](CO)NC(=O)[C@H](CC(C)C)NC(=O)[C@@H](NC(=O)[C@@H](N)Cc1ccccc1)[C@@H](C)O)C(C)C)[C@@H](C)CC)C(=O)N[C@@H](CC(C)C)C(=O)N[C@@H](CC(C)C)C(=O)N[C@@H](CCCCN)C(=O)N[C@@H](CCC(N)=O)C(=O)N[C@@H](CCC(N)=O)C(=O)N[C@@H](CCCCN)C(=O)N[C@@H](CCC(N)=O)C(=O)N[C@@H](CCCCN)C(=O)N[C@@H](CCCCN)C(=O)N[C@@H](CCC(=O)O)C(=O)N[C@@H](CCCNC(=N)N)C(=O)N[C@@H](CCC(N)=O)C(=O)N[C@@H](CCC(N)=O)C(=O)N[C@@H](C)C(=O)N[C@@H](CCC(=O)O)C(=O)N[C@H](C(=O)N[C@@H](CC(N)=O)C(=O)N[C@H](C(=O)N[C@@H](CCC(N)=O)C(=O)N[C@@H](CC(C)C)C(=O)N[C@@H](CC(C)C)C(=O)N[C@@H](CCC(=O)O)C(=O)N[C@@H](CCCNC(=N)N)C(=O)N[C@H](C(N)=O)C(C)C)C(C)C)[C@@H](C)O [compound 56] (H-FTLSLDVPIGLK([AEEA-AEEA-γGlu-C18 diacid])QILLKQQKQKKERQQAETNVQLLERV-NH2)
  EC50: 22.9 nM
